Measured values published in paper PMC7355430, “Imunofan—RDKVYR Peptide—Stimulates Skin Cell Proliferation and Promotes Tissue Repair” (Molecules, 2020).
Peptide text beside a SMILES is read from it.

What was measured:
[1] = tested on: adipose-derived stem cells (ASCs); assay: LDH cytotoxicity assay; assay type: cell-based, human; details: 50–150 µg/mL, 48 h, serum-free medium; n=12 (Figure S5)
Method: (§1) Cell death was quantified by measurement of lactate dehydrogenase activity in cell culture supernatants (Takara, Japan, cat. No. MK401), following the manufacturer’s instructions. Cells were seeded into 96-well plates (BD, cat.no. 353872), at a density of 5000 cells per well, in medium (DMEM) supplemented with 10% FBS. After 24 h, the medium was changed to serum-free medium containing appropriate concentrations of IM peptide. After 48 h of stimulation supernatants were collected for LDH analysis. Cell death was normalized with respect to untreated control (without IM). Non-IM treated cells were used as negative control (0%) and Triton-X 100 (1%) was used as the positive control for maximum LDH release (maximum cytotoxicity, 100%). The assay was performed to IM in concentrations of 50–150 µg/mL.

46BR.1N fibroblasts = assay: LDH cytotoxicity assay; assay type: cell-based, human; details: 50–150 µg/mL, 48 h, serum-free medium; n=16 (Figure S5)
Method: as §1

HaCaT keratinocytes = assay: LDH cytotoxicity assay; assay type: cell-based, human; details: 50–150 µg/mL, 48 h, serum-free medium; n=16 (Figure S5)
Method: as §1

[2] = tested on: human lymphocyte cultures; details: cited from earlier work
Excerpt: Peptides play an important role in immunology, often through being epitopes for adaptive immune systems. Besides, they take part in mobilizing immune cells. […] Unfortunately, application of synthetic peptides can lead to unwanted immune activation or allergies and immunogenicity or immune-related adverse effects can limit the effectiveness of peptide-based therapies [[35],[36],[37 ...

basophils = assay: Basophil activation test (BAT); assay type: cell-based, human; details: 0.1 µg/mL, whole blood of healthy volunteers, Flow CAST highsens; cut-off 5%; 7 independent experiments
Method: The commercially available test Flow CAST® highsens (Bühlmann Laboratories, Schönenbuch, Switzerland) was used to perform BAT test on blood samples collected from healthy volunteers, who were not suffering from allergy, within 24 h of collection, according to the manufacturer’s protocol. Then, 100 µL of blood was incubated and IM peptide was added to the wells at a final concentration of 0.1 µg/mL. The cells were then stained with fluorochrome-stained monoclonal antibodies (anti-CD63, -CD203c, -CCR3) and incubated for 15 min at 37 °C. Then, erythrocyte lysis was performed, the cells were washed and analyzed by flow cytometry (BD FACSCanto II, San Jose, CA, USA). Each sample was accompanied by its own negative and positive control (anti-FcεRI mAb and fMLP).

[3] = tested on: primary fibroblast cell cultures; assay: Transcript levels by qPCR; assay type: cell-based, human; details: 0.1 µg/mL, 48 h, 2^−ΔCt relative to Actb and Tbp (Figure 5)
Method: Cell stimulation was performed as previously described. Primary fibroblasts after the third passage and ASCs after the second passage were cultured in appropriate DMEM medium supplemented with 10% FBS for 24 h. Then, the medium was changed for DMEM with 5% FBS and 24-h incubation was performed. After another medium change for serum-free, cells were stimulated with IM peptide (0.1 µg/mL) for 48 h. Cell cultures deprived of FBS for 48 h were used as a control. After stimulation, the cells were trypsinized, collected, and centrifuged, and the pellet was kept frozen (−80 °C) for transcriptome analysis and transcript level analysis.
RNA was extracted using an RNeasy Mini kit (Qiagen, Cat. No. 74104, Hilden, Germany). RNA quality and concentrations were examined with a NanoDrop 2000 spectrophotometer. cDNA synthesis was performed in a reaction mixture containing 200 ng of RNA, 100 pmoles of oligo dT20, 4 µl of 5× reaction buffer (250 mM Tris-HCl, 375 mM KCl, 15 mM MgCl2, and 50 mM DTT), and 200 units of Maxima Reverse Transcriptase (ThermoScientific Bio. Cat. No. EP0742, Waltham, MA USA), at a final volume of 20 µl. PCR reactions were carried out on a LightCycler LC96 device (Roche, Basel, Switzerland), at a final volume of 10 µl containing 5 µl of FastStart Essential DNA Green Master (Roche, Cat. No. 06402712001, Basel, Switzerland), 1 µl of cDNA, and 0.25 µl each of forward and reverse primer (10 µM). The primer sequences are listed in Supplementary Table S4. The transcript levels were determined using the 2^−ΔCt method relative to Actb and Tbp.

CTL, Th and NK cells = assay: Immune cell activation in PBMCs, flow cytometry; assay type: cell-based, human; details: 0.1 and 1.0 µg/mL, 48 h, 5 independent experiments
Method: Immunological tests were conducted on human peripheral blood mononuclear cells, isolated from “buffy coats” using a ficoll density gradient (Histopaque, Sigma-Aldrich, St. Louis, MO, USA). Buffy coats for were obtained from blood of healthy anonymous donors of the Regional Center of Blood Donation and Blood Therapy in Gdansk, Poland. After washing in PBS, erythrocyte lysis, and cell counting (cell counter, Bio-Rad), the PBMCs were seeded onto a 24-well culture plate at a density of 10^6 cells/1 mL of RPMI 1640 (Penicillin/Streptomycin, 10% FBS) per well. After cell resting for 24 h, cells were stimulated with IM peptide (0.1 µg/mL and 1.0 µg/mL) for the next 48 h under appropriate conditions (37 °C, 5% CO2). The untreated cells were used as a negative control, whereas cells stimulated with LPS (1 µg/mL) and PHA (2.5 µg/mL) were a positive control. After incubation, the PBMCs were collected, washed with PBS, counted and prepared for flow cytometry analysis. 10^4 cells/100 µl were stained with monoclonal, fluorochrome-conjugated antibodies (anti-CD3, -CD4, -CD8, -CD16, -CD56, -CD25, -CD69, -CD71, -HLA-DR, -CD11c, -CD80, and -CD83) and incubated for 30 min in RT in the dark. Stained cells were analyzed using a flow cytometer (LSRFortessa, BD, USA). All data are presented as percentages due to the application of hospital diagnostic laboratory standards for immune cells analyses.

**Q.** Which “cytotoxicity (LDH release)” value [1] does the source give for `CC(C)[C@H](NC(=O)[C@H](CCCCN)NC(=O)[C@H](CC(=O)O)NC(=O)[C@@H](N)CCCNC(=N)N)C(=O)N[C@@H](Cc1ccc(O)cc1)C(=O)N[C@@H](CCCNC(=N)N)C(=O)O` [IM, H-Arg-Asp-Lys-Val-Tyr-Arg-OH] (H-RDKVYR-OH) here?
**A.** Its value is “not cytotoxic”.

**Q.** And the “cytotoxicity (LDH release)” value (46BR.1N fibroblasts)?
**A.** Its value is “not cytotoxic”.

**Q.** And the “cytotoxicity (LDH release)” value (HaCaT keratinocytes)?
**A.** Its value is “not cytotoxic”.

**Q.** And the “synthesis of IgE” value [2]?
**A.** The value was “suppress the synthesis”.

**Q.** What about the “production of IgM, IgG, and IgA” value ([2]; following stimulation with pokeweed mitogen) of the same compound?
**A.** Its value is “increase the production”.

**Q.** What about the “level of degranulated cells (basophil activation)” value (basophils) of the same compound?
**A.** The value was “below 5%”.

**Q.** What about the “transcriptional response of POU5F1” value ([3]; fibroblasts from all three donors) of the same compound?
**A.** The value was “very strong induction”.

**Q.** And the “transcriptional response of TET1” value ([3]; primary fibroblasts)?
**A.** The value was “high activation”.

**Q.** And the “transcriptional response of TET3” value ([3]; primary fibroblasts)?
**A.** Its value is “high activation”.

**Q.** What about the “immunogenic properties (activation of CTL, Th, NK)” value (CTL, Th and NK cells) of the same compound?
**A.** Its value is “no immunogenic properties”.
